Measurements taken from patent publication US11413278B2, “Compounds and methods for promoting stress resistance” (priority 2015, dated 2022).
Read-outs that look alike come from different tables or passages of the source.

Tests used:
Format in all cases: cell-based, human
[1] = system: FOXO3; experiment: qPCR analysis of FOXO3-regulated genes; details: for fold induction at 10 µM: Homo sapiens; for K = Sestrin induction: score
In short: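 FOXO3 target-gene expression quantified by qPCR normalised to B2M, PPIA and GAPDH, in WI-38 cells after 24 h exposure to 10 μM compound. Some runs used cells first transfected 36 h with 10 nM FOXO3 or NRF2 siRNA and replated ~24 h before dosing.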

[2] = system: mTOR; experiment: mTOR inhibition (RPS6 phosphorylation status), In-Cell Western
In short: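 Read-out is In-Cell Western near-infrared imaging of phospho-RPS6 (Ser-235/236) against total RPS6, using overnight 4° C primary staining and DyLight 680/800 secondaries. Compounds were given to WI-38 cells for 24 hrs at three doses: 5, 10 and 20 μM.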

[3] = system: NRF2; experiment: qPCR analysis of NRF2-regulated genes; details: for fold induction at 10 µM: Homo sapiens
In short: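 Expression of HMOX1, NQO1, GCLC and GSTM1 measured by qPCR relative to B2M, PPIA and GAPDH. Cells were WI-38 fibroblasts exposed 24 hrs to 10 μM compound, with RNA and cDNA prepared via Cells-to-Ct. Where stated, cells were first transfected 36 hrs with FOXO3 or NRF2 siRNA at 10 nM.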

[4] = WI-38 cells, 10 μM, 24 hrs, n=4, qPCR normalized by B2M, read-out: DDB1 Normalized fold change
[5] = WI-38 cells, 10 μM, 24 hrs, n=4, qPCR normalized by B2M, read-out: GADD45A Normalized fold change
[6] = WI-38 cells, 10 μM, 24 hrs, n=4, qPCR normalized by B2M, read-out: SESN1 Normalized fold change
[7] = qPCR, WI-38 cells, 10 μM, n=4, 24 hrs, normalized by B2M, read-out: CAT Normalized fold change
[8] = qPCR, WI-38 cells, 10 μM, n=4, 24 hrs, normalized by B2M, read-out: SOD2 Normalized fold change
[9] = qPCR, WI-38 cells, 10 μM, n=4, 24 hrs, normalized by B2M, read-out: TXNIP Normalized fold change
[10] = WI-38 cells, 10 μM, 24 hrs, n=4, qPCR normalized by B2M, read-out: GCLC Normalized fold change
[11] = WI-38 cells, 10 μM, 24 hrs, n=4, qPCR normalized by B2M, read-out: GSTM1 Normalized fold change
[12] = WI-38 cells, 10 μM, 24 hrs, n=4, qPCR normalized by B2M, read-out: HMOX1 Normalized fold change
[13] = WI-38 cells, 10 μM, 24 hrs, n=4, qPCR normalized by B2M, read-out: NQO1 Normalized fold change
[14] = 24 h, Assay 12(o), at 10 uM, qPCR, read-out: Induction of NRF2-regulated genes: HMOX1 normalized fold-change
[15] = 24 h, Assay 12(o), at 10 uM, qPCR, read-out: Induction of NRF2-regulated genes: NQO1 normalized fold-change
[16] = rounded fold change, WI-38 cells, 10 μM, 24 hrs (RP11 for Gr-1D, RP29 for Gr-4D), read-out: Summary of effects on NRF2-regulated genes: HMOX1
[17] = rounded fold change, WI-38 cells, 10 μM, 24 hrs (RP29 for Gr-4D), read-out: Summary of effects on NRF2-regulated genes: NQO1
[18] = 10 μM, 24 hrs, WI-38 cells, qPCR, normalized to B2M, n = 4, read-out: HMOX1 expression, normalized fold change (NRF2-regulated gene)
[19] = 10 μM, 24 hrs, WI-38 cells, qPCR, normalized to B2M, n = 4, read-out: NQO1 expression, normalized fold change (NRF2-regulated gene)
[20] = 24 h, Assay 10(m), at 10 uM, qPCR, read-out: Induction of FOXO3-regulated genes: GADD45A normalized fold-change
[21] = 10 μM, 24 hrs, WI-38 cells, qPCR, normalized to B2M, n = 4, read-out: GADD45A expression, normalized fold change (FOXO3-regulated gene)
[22] = fold change, qPCR, WI-38 cells, 10 μM, 24 hrs, read-out: Summary of effects on FOXO3-regulated genes: GADD45A
[23] = 24 h, Assay 12(o), at 10 uM, qPCR, read-out: Induction of NRF2-regulated genes: GCLC normalized fold-change
[24] = rounded fold change, WI-38 cells, 10 μM, 24 hrs, read-out: Summary of effects on NRF2-regulated genes: GCLC
[25] = 10 μM, 24 hrs, WI-38 cells, qPCR, normalized to B2M, n = 4, read-out: GCLC expression, normalized fold change (NRF2-regulated gene)

O=C1NCCCc2cc(Cl)sc21 [O1]
E = Potential FOXO3 Activation ([1]; 2-point score): 0
fold induction at 10 µM [1, 4]: 1.2
fold induction at 10 µM [1, 5]: 0.853
fold induction at 10 µM [1, 6]: 1.18
fold induction at 10 µM [1, 7]: 1.25
fold induction at 10 µM [1, 8]: 1.11
fold induction at 10 µM [1, 9]: 1.11
K = Sestrin induction [1]: 0
E = Potential FOXO3 Activation ([1]; summary score): 0
G = mTOR down-regulation ([2]; 2-point score): 0
G = mTOR down-regulation ([2]; summary score): 0
F = Potential NRF2 Activation ([3]; 2-point score): 0
fold induction at 10 µM [3, 10]: 1.21
fold induction at 10 µM [3, 11]: 1.09
fold induction at 10 µM [3, 12]: 1.25
fold induction at 10 µM [3, 13]: 1.08
F = Potential NRF2 Activation ([3]; summary score): 0

CCc1ccc(Oc2nc3ccccn3c(=O)c2/C=C(\C#N)C(=O)NC2CCCCC2)cc1 [Gr-5A]
E = Potential FOXO3 Activation ([1]; 2-point score): 0
fold induction at 10 µM [1, 4]: 1.2
fold induction at 10 µM [1, 5]: 0.841
fold induction at 10 µM [1, 6]: 1.38
fold induction at 10 µM [1, 7]: 1.17
fold induction at 10 µM [1, 8]: 1.12
fold induction at 10 µM [1, 9]: 1.14
K = Sestrin induction [1]: 0
E = Potential FOXO3 Activation ([1]; summary score): 0
G = mTOR down-regulation ([2]; 2-point score): 0
G = mTOR down-regulation ([2]; summary score): 0
F = Potential NRF2 Activation ([3]; 2-point score): 2
Potential NRF2 Activation (>=2 target genes induced, by >=1.5-fold) ([3]; Assay 13(p)): YES
fold induction at 10 µM [3, 14]: 2.06
fold induction at 10 µM [3, 15]: 1.55
fold induction at 10 µM [3, 16]: 2.06
fold induction at 10 µM [3, 17]: 1.55
fold induction at 10 µM ([3]; 10 μM, 24 hrs, WI-38, read-out: Expression of at least two NRF2 target genes): > 1.5
fold induction at 10 µM [3, 18]: 2.06
fold induction at 10 µM [3, 19]: 1.55
fold induction at 10 µM [3, 10]: 0.919
fold induction at 10 µM [3, 11]: 1.15
fold induction at 10 µM [3, 12]: 2.06
fold induction at 10 µM [3, 13]: 1.55
F = Potential NRF2 Activation ([3]; summary score): 2

COc1cccc(/C=C2\CN(C)C/C(=C\c3cccc(OC)c3OC)C2=O)c1OC [O23]
Induction of at least two of five FOXO3-regulated genes (SOD2, GADD45A, CAT, DDB1, TXNIP) ([1]; 10 μM, 24 hrs, WI-38): induce FOXO3-regulated genes
SOD2 expression, normalized fold change (FOXO3-regulated gene) ([1]; 10 μM, 24 hrs, WI-38 cells, qPCR, normalized to B2M, n = 4): SOD2 2.04 fold
E = Potential FOXO3 Activation ([1]; 2-point score): 2
Potential FOXO3 Activation (>=2 target genes induced, by >=1.5-fold) ([1]; Assay 11(n)): YES
fold induction at 10 µM [1, 20]: 7.22
fold induction at 10 µM ([1]; 24 h, Assay 10(m), at 10 uM, qPCR, read-out: Induction of FOXO3-regulated genes: SOD2 normalized fold-change): 2.04
fold induction at 10 µM ([1]; 24 h, Assay 10(m), at 10 uM, qPCR, read-out: Induction of FOXO3-regulated genes: TXNIP normalized fold-change): 0.07
fold induction at 10 µM [1, 21]: 7.22
fold induction at 10 µM ([1]; 10 μM, 24 hrs, WI-38 cells, qPCR, normalized to B2M, n = 4, read-out: TXNIP expression, normalized fold change (FOXO3-regulated gene)): 0.07
fold induction at 10 µM [1, 4]: 1.26
fold induction at 10 µM [1, 5]: 7.22
fold induction at 10 µM [1, 6]: 0.799
fold induction at 10 µM [1, 22]: 7.22
fold induction at 10 µM ([1]; fold change, qPCR, WI-38 cells, 10 μM, 24 hrs, read-out: Summary of effects on FOXO3-regulated genes: TXNIP): 0.07
fold induction at 10 µM [1, 7]: 0.89
fold induction at 10 µM [1, 8]: 2.04
fold induction at 10 µM [1, 9]: 0.071
Summary of effects on FOXO3-regulated genes: SOD2 ([1]; fold change, qPCR, WI-38 cells, 10 μM, 24 hrs): SOD2 2.04
K = Sestrin induction [1]: 0
E = Potential FOXO3 Activation ([1]; summary score): 2
G = mTOR down-regulation ([2]; 2-point score): 0
G = mTOR down-regulation ([2]; summary score): 0
F = Potential NRF2 Activation ([3]; 2-point score): 0
fold induction at 10 µM [3, 23]: 0.67
fold induction at 10 µM ([3]; 24 h, Assay 12(o), at 10 uM, qPCR, read-out: Induction of NRF2-regulated genes: GSTM1 normalized fold-change): 0.6
fold induction at 10 µM [3, 14]: 12.9
fold induction at 10 µM [3, 15]: 0.48
fold induction at 10 µM [3, 16]: 12.9
fold induction at 10 µM ([3]; rounded fold change, WI-38 cells, 10 μM, 24 hrs (RP29 for Gr-4D), read-out: Summary of effects on NRF2-regulated genes: GSTM1): 0.6
fold induction at 10 µM [3, 17]: 0.48
fold induction at 10 µM [3, 24]: 0.67
fold induction at 10 µM [3, 25]: 0.67
fold induction at 10 µM ([3]; 10 μM, 24 hrs, WI-38 cells, qPCR, normalized to B2M, n = 4, read-out: GSTM1 expression, normalized fold change (NRF2-regulated gene)): 0.6
fold induction at 10 µM [3, 18]: 12.9
fold induction at 10 µM [3, 19]: 0.48
fold induction at 10 µM [3, 10]: 0.668
fold induction at 10 µM [3, 11]: 0.595
fold induction at 10 µM [3, 12]: 12.9
fold induction at 10 µM [3, 13]: 0.477
F = Potential NRF2 Activation ([3]; summary score): 0

CC(C)(C)c1ccc(OCC(=O)Nc2ccc3c4c(cccc24)C(=O)NC3=O)cc1 [O22]
E = Potential FOXO3 Activation ([1]; 2-point score): 0
fold induction at 10 µM [1, 20]: 1.23
fold induction at 10 µM [1, 21]: 1.23
fold induction at 10 µM [1, 4]: 1.04
fold induction at 10 µM [1, 5]: 1.23
fold induction at 10 µM [1, 6]: 1.29
fold induction at 10 µM [1, 22]: 1.23
fold induction at 10 µM [1, 7]: 1.04
fold induction at 10 µM [1, 8]: 1.02
fold induction at 10 µM [1, 9]: 0.742
K = Sestrin induction [1]: 0
E = Potential FOXO3 Activation ([1]; summary score): 0
G = mTOR down-regulation ([2]; 2-point score): 0
G = mTOR down-regulation ([2]; summary score): 0
F = Potential NRF2 Activation ([3]; 2-point score): 0
fold induction at 10 µM [3, 23]: 0.66
fold induction at 10 µM [3, 24]: 0.66
fold induction at 10 µM [3, 25]: 0.66
fold induction at 10 µM [3, 10]: 0.659
fold induction at 10 µM [3, 11]: 0.877
fold induction at 10 µM [3, 12]: 0.765
fold induction at 10 µM [3, 13]: 0.929
F = Potential NRF2 Activation ([3]; summary score): 0
